Experimental data from patent EP0565593B1, “REDUCING PESTICIDAL INTERACTIONS IN CROPS” (priority 1990, dated 1992).
“And” between values parts separate entries of the source, which are not always exact repeats. Equal values may be shown once. Read-outs that look alike come from different tables or passages of the source.

Tests used:
[1] = tested on: Corn; experiment: Greenhouse test, combination of Procedures II and III: insecticide in-furrow or in cover layer, herbicide and antidote incorporated in cover layer (Examples 1-3, 6; Tables 1-3, 6); format: in vivo; conditions: for % Injury Corn: 3 weeks
[2] = tested on: velvetleaf (Abutilon theophrasti); experiment: Greenhouse test, combination of Procedures II and III (Examples 1, 2; Tables 1, 2); format: in vivo; conditions: 3 weeks
[3] = tested on: Corn; experiment: Greenhouse test Procedure VI: biocide and antidote in furrow, herbicide PPI in cover layer (Examples 43-47, 59-61; Tables 42-46, 58-60); format: in vivo; conditions: Example 43; Antidotes 1, 7, 12, 33
From the text: This procedure describes interaction among herbicide, biocide and antidote when the herbicide is incorporated in a soil cover layer and the biocide and the antidote are applied in a soil furrow containing crop seed before emergence of the crop. The soil and seeding depth were described in Procedure IV. A first container was designated as an untreated control, a second container was designated as a herbicide control, a third container was designated as a herbicide + biocide control and a fourth container as a herbicide + biocide + antidote test container. The biocide and antidote were formulated as granules. The biocide was applied to the soil furrows of the third and fourth containers at an application rate of 1.1 mg of active compound per cm of row. The antidote was applied to the soil furrow of the fourth container at an application rate of 0.37 mg of active compound per cm of row. A measured amount of the herbicide dispersed or dissolved in acetone was applied to a measured quantity of soil. The quantity of soil treated with the herbicide was thoroughly mixed to incorporate the herbicide. Samples of this soil were used to cover the seed beds of the second, third and fourth containers. For each test series, the seed bed of the first container was likewise covered by a soil layer not treated with herbicide and without biocide or antidote in the soil furrow.
The containers were then placed on a bench in a greenhouse. Watering was by subirrigation plus overhead irrigation after the plants emerged. All treatments were run in duplicate. Plant response was observed according to Procedure IV. Variations in this procedure will be noted in the examples.
In continuing tests to evaluate the variations of this invention, a series of tests were conducted to determine the efficacy of the above safeners in Examples 39-42 to alleviate corn injury induced by the interaction of various additional commercial sulfonylurea herbicides with COUNTER 15G insecticide. In this example, the tests were conducted according to Procedure VI above. In modifications of that procedure, herbicides were applied to soil samples as acetone/water suspensions, incorporated by shaking in a closed container, with subsamples used to cover furrow-treated 10.2 cm pots. Pots were subirrigated followed by overhead misting on days 6-10.
This example was designed to test the safening effect of those above safeners used in this test series to relieve corn injury by negative synergism induced by interaction of COUNTER 15G and three imidazolinone herbicides, i.e., imazaquin and imazapyr (used in the POE tests in Example 41) and AC 263222 (a.i. in CADRE® herbicide). As differing from the tests in Example 41, this test was a PPI test according to Procedure VI described above. Observation of test results (Table 43) were taken thirteen 913) days after in-furrow PPI preparation.
This example describes PPI tests to evaluate said test safeners in this series with analogs of the sulfonamide herbicides tested under POE herbicide application procedures described in Example 42. In these tests, conducted according to Procedure VI described above, Herbicide Nos. 20, 22 and 24 were applied PPI with the insecticide and antidote. Observations of tests results were made thirteen days after PPI initiation.
An additional three (3) sulfonamide herbicide analogs were tested simultaneously and under the same conditions described in Example 45.
Another test of this invention involved the safening effects of the safeners in this series against negative synergy inducted by the interaction of COUNTER 15G and a sulfonylurea herbicide (OUST®), Herbicide No. 13, and PURSUIT, an imidazolinone herbicide, No. 6. Test conditions were the same as those in Examples 43-46. Other procedures for applying herbicidal formulations are as described in Example 42. […]

[4] = tested on: Shattercane (SHCA); format: in vivo; conditions: […]
[5] = tested on: Velvetleaf (VELE); format: in vivo, Abutilon theophrasti; conditions: […]
[6] = tested on: Giant foxtail (GIFT); experiment: whole plant or invertebrate; format: in vivo; conditions: […]; PPI; 14 days after PPI (Table 34)
[7] = tested on: Velvetleaf (VELE); experiment: whole plant or invertebrate; format: in vivo, Abutilon theophrasti; conditions: […]; PPI; 14 days after PPI (Table 34)
[8] = tested on: Corn; experiment: Greenhouse test Procedure VII: biocide and antidote in furrow, herbicide POE (Examples 39-42, 48-50, 56-58; Tables 38-41, 47-49, 55-57); format: in vivo; conditions: Herbicide No. 8 0.28 Kg/Ha POE + COUNTER 15G 227 g/305 m + antidote in furrow
From the text: This procedure describes interaction among herbicide, biocide and antidote when the biocide and the antidote is applied to a soil furrow containing crop seed before emergence of the crop and the herbicide is applied after emergence of the crop and weeds. The soil and planting depth was described in Procedure IV. The containers for comparison, the biocide and antidote applications to soil furrows were described in Procedure VI. In this procedure, the seed beds of the first, second, third and fourth containers are covered by soil layers not treated with herbicide. The containers were then placed on a bench in a greenhouse and subirrigated as required for the duration of the test. The herbicide, dispersed or dissolved in water containing 0.25% v/v nonionic surfactant (X-77) was applied by a track sprayer (187 L/ha) to the emerged plants of the second, third and fourth containers about five days after planting. All treatments were run in duplicate. Plant response was observed according to Procedure IV. Variations in this procedure will be noted in the examples.
In this example, tests were conducted according to Procedure VII for the POE application of the herbicides following in-furrow application of COUNTER® 15G insecticide (BIOCIDE No. 1) and the antidote on the pre-planted test seeds. In this test, the herbicides were Nos. 1 (MON-12000), 10 (ALLY®) and #4 (HARMONY®) and the Antidote Nos. 1, 7, 12 and 33.
These in-furrow treatments comprised a 50-50 mix of blended granules of COUNTER with and without 5G granular antidotes at 7.4 + 7.4 mg/cm or 1.1 + 0.37 mg active ingredient (a.i.)/cm. The in-furrow initiation of the test was followed five (5) days later with POE application of the herbicides; observations were made eight (8) days later.
In another test, conducted simultaneously with that in Example 39, Herbicide Nos. 5 (chlorimuron ethyl, active ingredient in CLASSIC® herbicide), 7 (nicosulfuron, active ingredient in ACCENT® herbicide) and 15 (tribenuron methyl, active ingredient in EXPRESS® herbicide) were substituted as test herbicides.
In this example, using the same procedure as above, the following imidazolinone herbicides were used with the same insecticide/biocide and antidotes as above: Herb. No. 16 (imazaquin, a.i. in SCEPTER® herbicide; No. 19 (Code No. AC 222293, a.i. in ASSERT® herbicide); No. 6 (imazethapyr, a.i. in PURSUIT® herbicide and No. 18 (imazapyr, a.i. in ARSENAL® herbicide). Test results are shown in Table 40. Table 40
This example describes the testing of the above antidotes used in Examples 39-41 to safen negative synergy interactions between representative species of the class of herbicidal compounds identified as azolopyrimidine sulfonamides and COUNTER 15G. The same procedure used in the above examples was conducted in this test. In this test, the herbicides were formulated in 17% acetone and 83% water with 0.25% v/v X-77 surfactant.
In these tests (according to Procedure VII) the safeners in solution with acetone were applied in furrow to the soil, followed by COUNTER 15G granules at 227 g/305 m (8 oz./1000'). Applications were made in alternate rows in two separate 13.7 cm x 27.7 cm pans containing Dupo silt loam. Pans were seeded 1.3 cm deep, placed on benches in a greenhouse and subirrigated. BEACON was formulated in water with 0.25% v/v X-77 surfactant and applied by track sprayer at a rate of 187 L/Ha (20 gal/A). Weed species in this test were giant foxtail, shattercane and velvetleaf. The herbicide was applied five (5) days after PPI initiation and observation of test result (shown in Table 47) made eight (8) days later.
In Table 47 COUNTER 15G is abbreviated as "C" and the antidotes as "A" in the column headings which indicate the "C + A" ratios used in the tests. Control and COUNTER treatments are average of four (4) replications and COUNTER + Antidote treatments, average of 2 reps. […]

[9] = tested on: Corn; conditions: […]
[10] = tested on: Corn; conditions: […]; PPI; 14 days after PPI (Table 34)
[11] = Ex. 2: Insecticide 1 (0.23 Kg/Ha) + Herbicide 9 2.24 Kg/Ha
[12] = Ex. 2: Insecticide 2 3.36 Kg/Ha + Herbicide 9 2.24 Kg/Ha
[13] = Ex. 2: Insecticide 2 3.36 Kg/Ha + Herbicide 2 4.48 Kg/Ha
[14] = observed 8 days later (Table 32)
[15] = observed 8 days later (Table 33)

Question: Which results are given for `CCNc1nc(Cl)nc(NC(C)C)n1` [Herbicide No. 9, 2-Chloro-4-(ethylamino)-6-(isopropylamino)-S-triazine, reference compound]?
Answer: % Injury Corn [1, 11]: 3%; % Injury Corn [1, 12]: 0%; injury to corn ([1]; Ex. 2: combination of the insecticides (Nos. 1, 2) with atrazine): did not appear to be any significant injury; % Injury Corn ([1]; Ex. 3: Herbicide 9 2.24 Kg/Ha): 0%; % Injury Corn ([1]; Ex. 3: Insecticide 3 (227 g) + Herbicide 9 2.24 Kg/Ha): 0%; % Injury Corn ([1]; Ex. 3: Insecticide 4 (227 g) + Herbicide 9 2.24 Kg/Ha): 0%; % Injury VELE [2, 11]: 88%; % Injury VELE [2, 12]: 30%

Question: `CCOCN(C(=O)CCl)c1c(C)cccc1CC` [Herbicide No. 2, 2-Chloro-2'-ethyl-6'-methyl-N-(ethoxymethyl)acetanilide, reference compound] was tested. Which “% Injury Corn” value ([1]; Ex. 2: Insecticide 1 0.23 Kg/305m (ditto mark) + Herbicide 2 4.48 Kg/Ha (so in the source)) did it give?
Answer: 66% and 93%

Question: What about the “% Injury Corn” value [1, 13] of the same compound?
Answer: 76%

Question: And the “% Injury Corn” value ([1]; Ex. 3: Herbicide 2 4.48 Kg/Ha)?
Answer: 78%

Question: And the “% Injury Corn” value ([1]; Ex. 3: Insecticide 3 (227 g) + Herbicide 2 4.48 Kg/Ha)?
Answer: 83%

Question: And the “% Injury Corn” value ([1]; Ex. 3: Insecticide 4 (227g) + Herbicide 2 4.48 Kg/Ha)?
Answer: 95%

Question: And the “% Injury VELE” value [2, 13]?
Answer: 35%

Question: Which “safening of herbicide/COUNTER 15G corn injury by the antidotes” value [3] does the source give for `COC(=O)c1ccccc1S(=O)(=O)NC(=O)Nc1nc(C)cc(C)n1` [Herbicide No. 13, reference compound] here?
Answer: limited to nil

Question: `COc1nc(C)nc(NC(=O)NS(=O)(=O)c2ccccc2Cl)n1` [Herbicide No. 12, Benzenesulfonamide, 2-chloro-N-[[(4-methoxy-6-methyl-1,3,5-triazin-2-yl)amino]carbonyl]-, reference compound] was tested. Which “safening of herbicide/COUNTER 15G corn injury by the antidotes” value [3] did it give?
Answer: effectively reduced corn injury

Question: With `CCSC(=O)COC(c1ccccc1)c1ccccc1` [compound 51] as the compound, how does the “% Inhibition SHCA” value [4, 14] read?
Answer: 80%

Question: What about the “% Inhibition SHCA” value [4, 15] of the same compound?
Answer: 35%

Question: And the “% Inhibition VELE” value [5, 14]?
Answer: 85%

Question: What about the “% Inhibition VELE” value [5, 15] of the same compound?
Answer: 70%

Question: And the “% Inhibition GIFT” value [6]?
Answer: 65%

Question: What about the “% Inhibition VELE” value [7] of the same compound?
Answer: 90%

Question: What about the “% Corn Inhibition C:A Ratios 5” value ([8]; C:A ratio 5) of the same compound?
Answer: 0%

Question: And the “% Corn Inhibition C:A Ratios 10” value ([8]; C:A ratio 10)?
Answer: 5%

Question: And the “% Corn Inhibition C:A Ratios 20” value ([8]; C:A ratio 20)?
Answer: 3%

Question: What about the “% Corn Inhibition C:A Ratios 40” value ([8]; C:A ratio 40) of the same compound?
Answer: 8%

Question: And the “% Corn Inhibition C:A Ratios 80” value ([8]; C:A ratio 80)?
Answer: 10%

Question: What about the “% Corn Inhibition C:A Ratios 160” value ([8]; C:A ratio 160) of the same compound?
Answer: 10%

Question: What about the “% Inhibition Corn” value [9, 14] of the same compound?
Answer: 0%

Question: And the “% Inhibition Corn” value [9, 15]?
Answer: 30%

Question: And the “% Inhibition Corn” value [10]?
Answer: 25%

Question: `COc1nc(C)nc(NC(=O)NS(=O)(=O)c2ccccc2OCCCl)n1` [Herbicide No. 11, Benzenesulfonamide, 2-(2-chloroethoxy)-N-[[(4-methoxy-6-methyl-1,3,5-triazin-2-yl)amino]carbonyl]-, reference compound] was tested. Which “safening of herbicide/COUNTER 15G corn injury by the antidotes” value [3] did it give?
Answer: effectively reduced corn injury

Question: How did the “safening of herbicide/COUNTER 15G corn injury by the antidotes” value [3] turn out when `COC(=O)c1ccccc1CS(=O)(=O)NC(=O)Nc1nc(OC)cc(OC)n1` [Herbicide No. 14, Benzoic acid, 2-[[[[[(4,6-dimethoxy-2-pyrimidinyl)amino]carbonyl]amino]sulfonyl]methyl]-, methyl ester, reference compound] was run?
Answer: effectively reduced corn injury
